Source: patent publication US8993617B2, “Ire1alpha endonuclease specific inhibitor with cytotoxic activity” (The Board of Trustees of the Leland Stanford Junior …, priority 2010, dated 2015)
Values belong to the compound of their own block, whether it stands above or below them.

Assays:
XBP1-luciferase reporter = test: XBP1-luciferase bioluminescence in transgenic XBP1-luc mice; format: in vivo; conditions: i.p.
Method: FIG. 2A is a bar graph showing that STF-083010 blocks bortezomib-induced XBP1 activity in vivo. Transgenic XBP1-luc mice were injected i.p. with drug vehicle (16% chremophor), 1 mg/kg bortezomib, or 1 mg/kg bortezomib and 60 mg/kg STF-083010 and bioluminescence was measured after 24 h. […] Error bars show s.e.m. of at least 4 animals.
FIG. 2B is a set of images of representative mice before and after treatment.
(§1) Human specimen isolation and assays. Bone marrow aspirates were obtained from MM patients after obtaining informed consent according to institutional guidelines. CD138+ plasma cells were selected by positive magnetic bead selection (StemCell Technologies, Vancouver, Canada) either after isolation of nucleated cells (patients 1-4) or directly (patients 5-8). Peripheral blood cells were obtained by Ficoll-Hypaque density centrifugation from separate control patients. Cell culture, reporter assays, RT-PCR, Western blotting, and bioluminescent imaging.

XBP1 mRNA splicing = test: endogenous XBP1 mRNA splicing by RT-PCR in ER-stressed RPMI8226 cells; format: cell-based, human
Method: FIG. 1B is a gel electrophoresis image showing STF-083010 inhibiting endogenous XBP1 mRNA splicing. RPMI8226 cells were treated with 300 μM thapsigargin (Th), 60 μM STF-083010 or both for indicated amount of time and the relative XBP1 splicing was determined by RT-PCR. Solid arrow indicates the unspliced and broken arrow indicates the spliced form.
(§2) To confirm the molecular target, we analyzed the effect of STF-083010 on endogenous XBP1 mRNA splicing levels in control and ER-stressed RPMI8226 human MM cells (FIG. 1B). […] To establish that this effect was due to a direct interaction between STF-083010 and Ire1α, we analyzed Ire1α enzymatic activity in a cell free system. STF-083010 blocked Ire1α's endonuclease activity (FIG. 1E), without affecting its kinase activity (FIG. 1F).
as §1

hIre1α [1] = target: T1, hIre1α (Homo sapiens, UniProt O75460); test: cell free Ire1α RNase (endonuclease) activity, HAC1 mRNA cleavage; format: biochemical; conditions: hIre1 with 32P HAC1 508 nt transcript, 30 min, 1-100 μM; read-out: half-maximal inhibition of HAC1 mRNA processing
T1 construct: hIre1α protein containing both Ire1 cytoplasmic kinase and RNase domains; made in house
T1 sequence (O75460 465-977 limits assumed): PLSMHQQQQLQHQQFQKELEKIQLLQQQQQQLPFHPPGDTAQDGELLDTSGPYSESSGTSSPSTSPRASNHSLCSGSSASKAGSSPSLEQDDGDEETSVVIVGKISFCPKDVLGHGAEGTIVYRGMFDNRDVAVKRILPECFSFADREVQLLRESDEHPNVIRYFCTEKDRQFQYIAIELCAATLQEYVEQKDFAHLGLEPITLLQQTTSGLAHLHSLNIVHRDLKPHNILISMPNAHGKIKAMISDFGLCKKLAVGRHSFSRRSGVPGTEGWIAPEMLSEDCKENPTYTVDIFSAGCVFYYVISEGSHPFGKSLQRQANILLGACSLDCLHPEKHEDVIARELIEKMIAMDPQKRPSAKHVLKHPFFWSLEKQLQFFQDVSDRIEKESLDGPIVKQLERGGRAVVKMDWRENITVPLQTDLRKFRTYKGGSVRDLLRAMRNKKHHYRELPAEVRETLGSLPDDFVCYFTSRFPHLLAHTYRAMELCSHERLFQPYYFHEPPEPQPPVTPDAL
Method: FIG. 1E is a gel electrophoresis image and a line graph showing the STF-083010 effect on cell free Ire1α RNase (endonuclease) activity. […] HAC1 mRNA cleavage reaction was analyzed by separation of products on denaturing polyacrylamide gels, followed by autoradiography. The line graph is the quantitation of HAC1 mRNA processing showing half-maximal inhibition at approximately 25 μM. Error bars represent s.e.m. of 3 independent experiments.
Chemical library screening. […] Autophosphorylation activity was determined with the addition of ^32P-γATP. Endonuclease activity was determined with the addition of radio-labeled HAC1 508 nt RNA substrate synthesized in vitro using α^32P-UTP (Nock S, Gonzalez T, Sidrauski C, Niwa M, Walter P. Purification and activity assays of the catalytic domains of the kinase/endoribonuclease Ire1p from Saccharomyces cerevisiae. Methods Enzymol. 2001; 342:3-10). […] Kinase activity and RNAse cleavage products were quantitated by PAGE and ^32P-γATP or ^32P-UTP autoradiography respectively.

hIre1α [2] = target: T1, hIre1α; test: cell free Ire1α kinase activity (autophosphorylation, 32P-γATP); format: biochemical; conditions: 0-100 μM, 32P-γATP autophosphorylation
Method: FIG. 1F is a graph and gel that show the effect of STF-083010 on cell free Ire1α kinase activity, Upper: hIre1α was incubated with 32P-γATP and increasing concentrations (0-100 μM) of STF-083010. Ire1α autophosphorylation was analyzed by SDS-PAGE, followed by autoradiography to determine the amount of 32P incorporation (32P-hIRE). […] Error bars represent s.e.m. of 3 independent experiments.
Chemical library screening. The screen was performed in the Stanford High-Throughput Bioscience Center (HTBC). hIre1α protein containing both Ire1 cytoplasmic kinase and RNase domains was expressed and purified from baculovirus as described (Niwa M, Sidrauski C, Kaufman R J, Walter P. A role for presenilin-1 in nuclear accumulation of Ire1 fragments and induction of the mammalian unfolded protein response. Cell. 1999; 99:691-702). Autophosphorylation activity was determined with the addition of ^32P-γATP. Endonuclease activity was determined with the addition of radio-labeled HAC1 508 nt RNA substrate synthesized in vitro using α^32P-UTP (Nock S, Gonzalez T, Sidrauski C, Niwa M, Walter P. Purification and activity assays of the catalytic domains of the kinase/endoribonuclease Ire1p from Saccharomyces cerevisiae. Methods Enzymol. 2001; 342:3-10). […] Kinase activity and RNAse cleavage products were quantitated by PAGE and ^32P-γATP or ^32P-UTP autoradiography respectively.

sXBP1 protein = sXBP1 protein production by immunoblotting in MM cell lines; format: cell-based, human; conditions: 300 μM Th and 60 μM STF-083010
Method: FIG. 1C is set of a gel electrophoresis images showing STF-083010 inhibiting the production of sXBP1 protein but not the auto-phosphorylation of Ire1α. The left panel indicates MM cell lines that were treated for the indicated times with 300 μM Th and 60 μM STF-083010 and sXBP1 protein was detected by immunoblotting.
as §2, §1

Ire1α = target: T2, Ire1α (Homo sapiens, UniProt O75460); test: Ire1α auto-phosphorylation by immunoblot in RPMI8226 cells; format: cell-based; conditions: 300 μM Th and 60 μM STF-083010
T2 construct: RPMI8226 cells were treated with 300 μM Th and 60 μM STF-083010; endogenous in cells; host or cells: RPMI8226 human multiple myeloma cells
T2 sequence (O75460 19-977): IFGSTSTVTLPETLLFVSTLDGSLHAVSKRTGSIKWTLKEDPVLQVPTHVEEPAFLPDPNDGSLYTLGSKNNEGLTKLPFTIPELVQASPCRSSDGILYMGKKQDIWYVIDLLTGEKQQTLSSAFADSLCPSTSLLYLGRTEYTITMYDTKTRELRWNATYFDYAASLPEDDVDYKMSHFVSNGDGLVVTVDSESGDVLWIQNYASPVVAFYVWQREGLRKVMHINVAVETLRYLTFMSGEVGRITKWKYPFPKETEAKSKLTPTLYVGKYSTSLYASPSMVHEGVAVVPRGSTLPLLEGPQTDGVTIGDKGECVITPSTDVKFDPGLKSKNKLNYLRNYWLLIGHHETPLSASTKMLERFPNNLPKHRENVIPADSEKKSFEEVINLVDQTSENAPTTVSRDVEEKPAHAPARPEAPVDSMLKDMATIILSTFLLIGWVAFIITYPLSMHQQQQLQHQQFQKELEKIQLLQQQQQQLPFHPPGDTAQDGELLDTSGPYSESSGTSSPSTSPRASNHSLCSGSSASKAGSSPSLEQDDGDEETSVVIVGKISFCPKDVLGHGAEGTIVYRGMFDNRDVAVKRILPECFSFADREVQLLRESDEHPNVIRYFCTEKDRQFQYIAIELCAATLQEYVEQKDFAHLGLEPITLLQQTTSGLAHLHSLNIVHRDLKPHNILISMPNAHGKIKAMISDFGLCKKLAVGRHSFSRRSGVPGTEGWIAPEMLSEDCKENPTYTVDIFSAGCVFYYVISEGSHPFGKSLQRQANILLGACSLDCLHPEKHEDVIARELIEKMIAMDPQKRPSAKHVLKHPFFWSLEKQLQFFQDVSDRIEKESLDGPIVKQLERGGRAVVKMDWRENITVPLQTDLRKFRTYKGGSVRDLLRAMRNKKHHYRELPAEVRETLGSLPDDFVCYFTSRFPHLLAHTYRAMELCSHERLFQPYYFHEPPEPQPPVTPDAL
Method: FIG. 1D is a set of gel electrophoresis images in which RPMI8226 cells were treated with 300 μM Th and 60 μM STF-083010 for the indicated times and the levels of phosphorylated and total Ire1α were detected using specific antibodies.

[3] = histology (H&E) of normal mouse tissues after treatment; format: in vivo; conditions: 60 mg/kg×1 and 30 mg/kg×2
Method: FIG. 3 is a set of images of the H&E stained sections of normal mouse tissues and RPMI8226 xenograft tumors treated with drug vehicle (16% chremophor in saline) or 30 mg/kg STF-083010 weekly for two weeks.

[4] = system: RPMI8226, MM.1S and MM.1R MM cells; test: in vitro cytotoxicity in MM cell lines, trypan blue exclusion; format: cell-based, human; conditions: 0, 30 or 60 μM, viable cell number measured daily
Method: FIG. 2C is a set of line graphs showing in vitro cytotoxicity of STF-083010. RPMI8226, MM.1S and MM.1R MM cells that were treated with 0, 30 or 60 μM of STF-083010 and viable cell number was measured daily by the trypan blue exclusion method.
(§3) In order to determine anti-myeloma activity of STF-083010, first we treated a panel of MM cell lines with increasing concentrations of the compound in vitro and measured viability by trypan blue exclusion (FIG. 2C). […] Next, we treated RPMI8226 human MM cells grown as tumor xenografts in NSG mice. […] Additionally, we treated fresh CD138+ cells isolated from MM patients and compared the ex vivo toxicity to that of cells from 7 control patients (FIG. 2E, Tables 1,2).

RPMI8226 MM cells = test: RPMI8226 subcutaneous tumor xenografts in NOD/SCID/IL2Rγ null mice; format: in vivo; conditions: intraperitoneal, 30 mg/kg once weekly for 2 weeks (d1, d8)
Method: FIG. 2D is a line graph showing the antitumor activity of STF-083010 in vivo. RPMI8226 MM cells were established as subcutaneous tumor xenografts in NOD/SCID/IL2Rγ null mice. When tumors reached an average volume of 150 mm3, 2 groups of 5 mice each were treated with 30 mg/kg STF-083010 or drug vehicle once weekly for 2 weeks.
as §3

[5] = system: CD138+ multiple myeloma cells; test: ex vivo cytotoxicity in CD138+ cells from MM patients (Annexin V/Propidium Iodide); format: cell-based, human
Excerpt: MM cells were obtained by CD138+ selection from bone marrow samples from MM patients; lymphocytes were obtained by Ficoll density-gradient centrifugation of peripheral blood samples from control patients, followed by staining with anti CD3, anti CD19 and anti CD56 monoclonal antibodies to differentiate between T-, B- and NK cells.
Next, we treated RPMI8226 human MM cells grown as tumor xenografts in NSG mice. […] Additionally, we treated fresh CD138+ cells isolated from MM patients and compared the ex vivo toxicity to that of cells from 7 control patients (FIG. 2E, Tables 1,2).
as §1

CD3 positive T cells = test: ex vivo cytotoxicity in peripheral blood T cells (7-aminoactinomycin D); format: cell-based, human; conditions: average of UPN 9-15
Method: (§4) FIG. 2E is a line graph showing that STF-083010 is preferentially cytotoxic against human MM cells. MM cells were obtained by CD138+ selection from bone marrow samples from MM patients; lymphocytes were obtained by Ficoll density-gradient centrifugation of peripheral blood samples from control patients, followed by staining with anti CD3, anti CD19 and anti CD56 monoclonal antibodies to differentiate between T-, B- and NK cells. Cells were cultured with the indicated concentrations of STF-083010 for 24 h and cell viability was measured by flow cytometric analysis of Annexin V/Propidium Iodide (MM) or 7-aminoactinomycin D (peripheral blood lymphocytes) stained samples.
as §3
(§5) Human specimen isolation and assays. Bone marrow aspirates were obtained from MM patients after obtaining informed consent according to institutional guidelines. […]

CD19 positive B cells = test: ex vivo cytotoxicity in peripheral blood B cells (7-aminoactinomycin D); format: cell-based, human; conditions: average of UPN 9-15
Method: as §4, §3, §5

CD56 positive NK cells = test: ex vivo cytotoxicity in peripheral blood NK cells (7-aminoactinomycin D); format: cell-based, human; conditions: average of UPN 9-15
Method: as §4, §3, §5

XBP1-luciferase bioluminescent activity after bortezomib alone (XBP1-luciferase reporter; 1 mg/kg bortezomib, 24 h): commensurate increase
Structure (SMILES): CC(C)C[C@H](NC(=O)[C@H](Cc1ccccc1)NC(=O)c1cnccn1)B(O)O [bortezomib, reference compound]

Structure (SMILES): C/C=C(/C)C(=O)O[C@H]1C(C)=C2[C@H]([C@@H]1OC(=O)CCCCCCC)[C@@](C)(OC(C)=O)C[C@H](OC(=O)CCC)[C@@]1(O)[C@H]2OC(=O)[C@@]1(C)O [thapsigargin, reference compound]
XBP1 splicing on incubation with thapsigargin alone (XBP1 mRNA splicing; RPMI8226 cells, 300 μM thapsigargin): resulted in XBP1 splicing

Structure (SMILES): O=S(=O)(/N=C/c1c(O)ccc2ccccc12)c1cccs1 [STF-083010, (E)-N-((2-hydroxynaphthalen-1-yl)methylene)thiophene-2-sulfonamide]
IC50 (hIre1α [1]): ~25 µM | Ire1α kinase activity during co-incubation (hIre1α [2]): no significant change | XBP1 mRNA splicing induced by thapsigargin (XBP1 mRNA splicing; RPMI8226 cells, 300 μM thapsigargin (Th), 60 μM STF-083010): almost completely blocked | XBP1 splicing activated by other types of ER stress (XBP1 mRNA splicing; tunicamycin treatment, glucose deprivation or severe hypoxia (data not shown)): inhibited XBP1 splicing | production of active sXBP1 protein (sXBP1 protein): inhibited production of active sXBP1 protein | Ire1α kinase activity, immunoblot of autophosphorylated Ire1α (Ire1α): did not inhibit | XBP1-luciferase bioluminescent signal when injected with bortezomib (XBP1-luciferase reporter; 1 mg/kg bortezomib and 60 mg/kg STF-083010, 24 h): no increase in bioluminescent signal | histologic effects after treatment [3]: did not find any histologic effects | viability of MM cell lines [4]: cytostatic and cytotoxic activity in a dose- and time-dependent manner | growth of tumor xenografts (RPMI8226 MM cells): significantly inhibited | LD50 24 h in multiple myeloma cells, AVERAGE ([5]; average of UPN 1-8): 27.8 µM | cytotoxicity to CD138+ cells compared to B (CD19+), T (CD3+), and NK (CD56+) cells ([5]; ex vivo, 24 h): selectively cytotoxic | LD50 (24 h) CD3 positive, AVERAGE (CD3 positive T cells): 136.6 µM | LD50 (24 h) CD19 positive, AVERAGE (CD19 positive B cells): 73.1 µM | LD50 (24 h) CD56 positive, AVERAGE (CD56 positive NK cells): 71.3 µM
